Laboratory results taken from PMC2873968, “Novel protein kinase D inhibitors cause potent arrest in prostate cancer cell growth and motility” (BMC Chemical Biology, 2010).

Experiments:
[1] = target: T1, PKCα (Homo sapiens, UniProt P17252); assay: In vitro radiometric PKC kinase assay; type: biochemical
T1 construct: purchased Cell Signaling Technology and Calbiochem
Method: (§1) The PKC in vitro kinase assays were performed as described previously.
(§2) To determine whether the novel analogs retained this specificity, we tested the compounds against their ability to inhibit PKCα, -βI, -δ, and CAMKIIα in in vitro radiometric kinase activity assays. All analogs were poor inhibitors of PKCα and PKCβI, with only slight (< 50%) inhibitory activity at 10 μM concentration (Fig. 5A and 5B).
(§3) Inhibition of PKCα (A), PKCβI (B), PKCδ (C), or CAMKIIα (D) by each of the 5 analogs was determined at 100 nM, 1 μM, and 10 μM concentrations. In the PKC assays, the potent PKC inhibitor GF109203X was used as a control. Data are the mean ± S.E.M. of three independent experiments. Statistical significance was determined using the unpaired t-test. ns, not statistically significant; *, p < 0.05; **, p < 0.01; ***, p < 0.001.

[2] = target: T2, PKCβI (Homo sapiens, UniProt P05771); assay: In vitro radiometric PKC kinase assay; type: biochemical
T2 construct: purchased Cell Signaling Technology
Method: as §1, §2, §3

[3] = target: T3, PKCδ (Homo sapiens, UniProt Q05655); assay: In vitro radiometric PKC kinase assay; type: biochemical
T3 construct: purchased Enzo Life Sciences
Method: as §1
To determine whether the novel analogs retained this specificity, we tested the compounds against their ability to inhibit PKCα, -βI, -δ, and CAMKIIα in in vitro radiometric kinase activity assays.
as §3, with “In the PKC assays, the potent PKC inhibitor GF109203X was used as a control.” left out

[4] = tested on: PKD; details: reported values, no reference given; cited from earlier work

T2 sequence (P05771 whole entry): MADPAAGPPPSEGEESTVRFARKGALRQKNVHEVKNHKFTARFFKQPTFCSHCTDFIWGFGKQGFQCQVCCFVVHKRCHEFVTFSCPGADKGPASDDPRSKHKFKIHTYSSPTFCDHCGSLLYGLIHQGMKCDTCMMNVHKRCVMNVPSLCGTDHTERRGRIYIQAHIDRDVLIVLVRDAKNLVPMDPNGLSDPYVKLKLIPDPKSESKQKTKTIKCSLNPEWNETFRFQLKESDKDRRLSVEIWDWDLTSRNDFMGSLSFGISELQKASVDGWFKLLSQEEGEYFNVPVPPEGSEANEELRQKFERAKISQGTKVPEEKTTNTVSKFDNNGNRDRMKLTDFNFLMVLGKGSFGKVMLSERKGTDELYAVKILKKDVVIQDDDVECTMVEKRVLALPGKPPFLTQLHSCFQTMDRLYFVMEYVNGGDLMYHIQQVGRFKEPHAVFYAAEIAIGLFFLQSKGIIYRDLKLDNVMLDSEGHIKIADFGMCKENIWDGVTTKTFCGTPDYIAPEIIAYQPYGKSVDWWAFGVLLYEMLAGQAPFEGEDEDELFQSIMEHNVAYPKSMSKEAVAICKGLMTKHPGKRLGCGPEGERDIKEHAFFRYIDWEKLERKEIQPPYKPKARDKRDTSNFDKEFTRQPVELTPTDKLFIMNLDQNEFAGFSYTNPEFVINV
T3 sequence (Q05655 whole entry): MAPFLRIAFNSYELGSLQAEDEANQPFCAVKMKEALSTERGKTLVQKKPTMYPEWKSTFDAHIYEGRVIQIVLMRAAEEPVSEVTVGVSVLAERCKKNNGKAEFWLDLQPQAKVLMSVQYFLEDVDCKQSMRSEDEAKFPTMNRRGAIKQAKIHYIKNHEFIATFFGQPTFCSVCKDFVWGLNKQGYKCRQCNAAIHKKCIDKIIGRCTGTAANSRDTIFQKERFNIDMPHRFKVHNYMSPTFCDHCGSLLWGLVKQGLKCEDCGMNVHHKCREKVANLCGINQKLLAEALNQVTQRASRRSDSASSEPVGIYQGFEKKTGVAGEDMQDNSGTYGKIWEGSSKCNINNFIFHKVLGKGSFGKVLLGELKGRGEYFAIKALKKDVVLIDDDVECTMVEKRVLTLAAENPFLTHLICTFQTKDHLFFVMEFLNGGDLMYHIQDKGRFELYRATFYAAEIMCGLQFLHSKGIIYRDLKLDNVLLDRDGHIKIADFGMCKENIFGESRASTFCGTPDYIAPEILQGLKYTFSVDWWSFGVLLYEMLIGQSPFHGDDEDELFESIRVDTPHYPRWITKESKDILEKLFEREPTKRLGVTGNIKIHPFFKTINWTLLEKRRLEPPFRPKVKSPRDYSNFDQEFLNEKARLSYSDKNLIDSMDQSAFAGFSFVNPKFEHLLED

| SMILES | inhibition of PKCα (in words) [1] | inhibition of PKCβI (in words) [2] | inhibition of PKCδ (in words) [3] | IC50 [4] |
| --- | --- | --- | --- | --- |
| CN(C)CCCn1cc(C2=C(c3c[nH]c4ccccc34)C(=O)NC2=O)c2ccccc21 [GF109203X] | strong inhibition | strong inhibition | strong inhibition |  |
| Cn1c2ccccc2c2c3c(c4c5ccccc5n(CCC#N)c4c21)CNC3=O [Gö6976] |  |  |  | 20 nM |
| COC(=O)[C@@]1(O)C[C@H]2O[C@]1(C)n1c3ccccc3c3c4c(c5c6ccccc6n2c5c31)C(=O)NC4 [Compound K252a] |  |  |  | 7 nM |
